Measured values published in patent US8921312B2, “Combination of insulin and ascorbate to enhance wound healing” (University of South Florida, priority 2006, dated 2014).

Columns and labels:
[1] = test system: collagen types I and V; assay: Collagen helix stability: pepsin digestion of culture medium, SDS-PAGE; format: cell-based, bovine; settings: pepsin in 0.5M acetic acid
Experimental: Cell Culture-Keratocytes were isolated from adult bovine corneas using two sequential collagenase digestions as previously described (see […], and […]. Production of prostaglandin D synthase as a keratan sulfate proteoglycan by cultured bovine keratocytes Invest Ophthalmol Vis Sci. 2001; 42:1201-1207; which is incorporated herein by reference). […] Each sample received a second 50 μl aliquot from the pepsin stock, and digestion was allowed to continue for an additional six hours at 4° C. The samples were titrated with 1 N NaOH to pH 8.0 to inactivate the enzyme, dialyzed against water overnight, lyophilized, reconstituted in 1 X SDS running buffer and separated on 10% bis-tris gels under reducing conditions. The gels were stained with Safestain following the manufacturer's protocol.

[2] = test system: keratocan; assay: Western blot of keratan sulfate proteoglycan accumulation in the medium: keratocan; format: cell-based, bovine
Experimental: (§1) Cell Culture-Keratocytes were isolated from adult bovine corneas using two sequential collagenase digestions as previously described (see […], and […]. Production of prostaglandin D synthase as a keratan sulfate proteoglycan by cultured bovine keratocytes Invest Ophthalmol Vis Sci. 2001; 42:1201-1207; which is incorporated herein by reference). […] Western blot analysis-Core protein and protein levels in the media were measured by Western blot as previously described. In brief, the culture media was collected from each culture condition, concentrated by spin filtration to one tenth or one fiftieth of the original volume. The size of the aliquot needed from each sample to provide a similar signal on film by Western blot was empirically determined. The measured pixel density was then divided by the DNA content of the culture equivalent to the amount loaded and expressed as pixel density per μg DNA. Blots were probed with polyclonal antibodies to bovine keratocan or lumican (diluted 1:1000) or prostaglandin D synthase (PGDS) (1:20,000). The lumican and keratocan antibodies are peptide antibodies raised against the core protein^48. The rabbit antiserum to bovine PGDS was a generous gift of Gary […] University). Membranes were rinsed and incubated for 1 hour in 1:10,000 horseradish peroxidase (HRP)-conjugated secondary IgG (GE Healthcare, Piscataway, N.J.). Protein bands were visualized using ECL (GE Healthcare, Piscataway, N.J.) on Kodak Bio-Max XAR X-ray film. Band density was measured using a Bio-Rad GS-710 Calibrated Imaging Densitometer (Bio-Rad, Hercules, Calif.).

[3] = test system: lumican; assay: Western blot of keratan sulfate proteoglycan accumulation in the medium: lumican; format: cell-based, bovine
Experimental: as §1

[4] = test system: prostaglandin D synthase (PGDS); assay: Western blot of keratan sulfate proteoglycan accumulation in the medium: PGDS; format: cell-based, bovine
Experimental: as §1, with “Membranes were rinsed and incubated for 1 hour in 1:10,000 horseradish peroxidase (HRP)-conjugated secondary IgG (GE Healthcare, Piscataway, N.J.). Protein bands were visualized using ECL (GE Healthcare, Piscataway, N.J.) on Kodak Bio-Max XAR X-ray film.” left out

[5] = test system: cells; settings: cited from earlier work
[6] = test system: keratocytes; assay: Keratocyte population growth in defined media (DNA content, Cyquant); format: cell-based, bovine; settings: DMEM/F12; insulin 10 μg/ml, ascorbate 1 mM; days 1-10
Source text: Cell Culture-Keratocytes were isolated from adult bovine corneas using two sequential collagenase digestions as previously described (see […], and […]. Production of prostaglandin D synthase as a keratan sulfate proteoglycan by cultured bovine keratocytes Invest Ophthalmol Vis Sci. 2001; 42:1201-1207; which is incorporated herein by reference). […] DNA quantitation-Cell layers were harvested on days 1, 4, 7 and 10 to measure DNA content using Cyquant (Invitrogen, Carlsbad, Calif.). Briefly, the cell layers were rinsed with PBS, frozen, thawed and solubilized in a lysis buffer supplemented with a DNA binding dye. The DNA content was determined at 480/535 nm by measuring 4 wells in triplicate and comparing the values to a calf thymus DNA standard. The DNA content of parallel cultures was measured for experiments that utilized the cell layer. Cell proliferation-Cultures were radiolabeled with 20 μCi ^3H-thymidine/ml of medium for 72 hours beginning on days 1 and 4. The labeled medium was removed upon harvesting, and the cell layers washed with cold PBS. The cell layers were processed as described under DNA quantitation. Incorporation into DNA was determined as previously described.

[7] = test system: keratocytes; assay: Collagen synthesis: 3H-glycine incorporation into collagenase-sensitive protein; format: cell-based, bovine; settings: 3H-glycine 72 h
Experimental: Cell Culture—Keratocytes were isolated from adult bovine corneas using two sequential collagenase digestions as previously described (see Berryhill B L, Beales M P, and Hassell J R. Production of prostaglandin D synthase as a keratan sulfate proteoglycan by cultured bovine keratocytes Invest Ophthalmol Vis Sci. 2001; 42:1201-1207; which is incorporated herein by reference). Cells were plated in DMEM/F12 at high density (20,000 cells/cm^2) in 6-well plates (Costar, Cambridge, Mass.) and allowed to attach overnight at 37° C. in 5% CO2. The medium was changed the next day (day 1) and on days 4, 7 and 10 to fresh DMEM or DMEM supplemented with insulin (10 μg/ml), with or without 1 mM 2-phospho-L-ascorbic acid (ascorbate). Ethyl-3,4-dihydroxybenzoate (EDB) was added at 0.08 mM and 0.4 mM final concentration on day 1.
Collagen synthesis—The incorporation of ^3H-glycine into collagen was determined as previously described. In summary, cultures were incubated for 72 hours in medium containing 25 μCi ^3H-glycine/ml beginning on day 1. Media was adjusted to 4M guanidine HCl and the cell layers extracted in 4M guanidine HCl. Unincorporated isotope in media and cell layers was removed by chromatography on PD10 columns equilibrated and eluted with 4M guanidine HCl (GE Healthcare, Piscataway, N.J.). Fractions containing incorporated radioactivity were pooled, dialyzed against water and 400 μl aliquots incubated with or without 2.5 Units collagenase form III (Advanced Biofactures, Lynbrook, N.Y.) in collagenase digestion medium (3 mM N-ethyl maleimide, 50 mM Tris pH 7.5, 150 mM NaCl and 5 mM CaCl2) for 3 hours at 37° C. Undigested proteins were precipitated with carrier BSA using cold 10% TCA containing 0.5% tannic acid and released incorporated counts measured by liquid scintillation. The DNA content was determined as described above.

[8] = test system: keratan sulfate; assay: Incorporation of 35SO4 into keratan sulfate (endo-β-galactosidase sensitive); format: cell-based, bovine; settings: 72 h labeling; medium; CPM per μg DNA; vs control
Source text: (§2) Cell Culture-Keratocytes were isolated from adult bovine corneas using two sequential collagenase digestions as previously described (see […], and […]. Production of prostaglandin D synthase as a keratan sulfate proteoglycan by cultured bovine keratocytes Invest Ophthalmol Vis Sci. 2001; 42:1201-1207; which is incorporated herein by reference). […] The medium was collected, frozen, lyophilized and reconstituted in 4 M guanidine HCl. Unincorporated isotope was removed using PD 10 columns Fractions containing incorporated ^35SO4 were combined and concentrated using Amicon Ultra spin-concentrators. Incorporation into CS and KS was determined by digestion with chondroitinase ABC or endo-β-galactosidase (Seikagaku, Associates of Cape Cod, E. Falmouth, Mass.) as previously described. Aliquots containing equivalent incorporated radioactivity were fractionated using a Superose 6 12/30 HR column (GE Healthcare, Piscataway, N.J.) equilibrated and eluted with 4M guanidine HCl (0.05 NaAc, pH6.5) at 0.3 ml/min Fractions (0.6 ml) were collected and incorporation measured by liquid scintillation counting. The levels of CS and KS in each fraction were determined as described above.

[9] = test system: chondroitin sulfate; assay: Incorporation of 35SO4 into chondroitin sulfate (chondroitinase ABC sensitive); format: cell-based, bovine; settings: 72 h labeling; medium; CPM per μg DNA; vs control
Source text: as §2

[10] = 0.08 mM EDB in medium containing insulin and ascorbate, 72 hours, vs insulin+ascorbate
[11] = 0.4 mM EDB in medium containing insulin and ascorbate
[12] = medium day 4, pixel density per μg DNA, vs control

Compound	Pepsin-resistant collagen bands in the medium with EDB ([1]; 0.4 mM EDB in insulin plus ascorbate medium)	Reduction of keratocan accumulation [2, 10]	Keratocan accumulation in the medium [2, 11]	Reduction of lumican accumulation [3, 10]	Lumican accumulation in the medium [3, 11]	PGDS level in the medium with EDB ([4]; EDB in medium containing insulin and ascorbate)	Toxicity to the cells [5]	Cell number (DNA content) over 10-day culture period [6]	Total collagen synthesized, fold more compared to control ([7]; day 1-4, insulin 10 μg/ml, ascorbate 1 mM, vs control medium)	Collagen in the cell layer, fold increase compared to control ([7]; cell layer, vs control)	Collagen in the medium, fold increase compared to control ([7]; medium, vs control)	Pepsin-resistant collagen (α1(I), α2(I), α1(V) bands) in the medium ([1]; SDS-PAGE)	Keratocan level in the medium, fold increase compared to control [2, 12]	Lumican level in the medium, fold increase compared to control [3, 12]	PGDS level in the medium [4, 12]	35SO4 incorporation into KS, fold compared to control [8]	35SO4 incorporation into CS, fold compared to control [9]
CCOC(=O)c1ccc(O)c(O)c1 [EDB, Ethyl-3,4-dihydroxybenzoate]	absent	28%	levels below of those measured in insulin alone	19%	levels below of those measured in insulin alone	declined but the decrease was not significant	not toxic to the cells	–	–	–	–	–	–	–	–	–	–
insulin: insulin added at 10 μg/ml to defined DMEM medium for keratocyte culture	–	–	–	–	–	–	–	increased in number	4 fold	5 fold	3 fold	absent	no effect	no effect	neither ascorbate nor insulin affected PGDS levels	only minor changes	only minor changes
